Values quoted from earlier work as cited in publication PMC4559881 (Molecular Neurodegeneration, 2015).
Read-outs that look alike come from different tables or passages of the source.

Legend:
[1] = cited from earlier work
brain Aβ = test system: brain Aβ; parameters: method as in PMID 22090477; details: PDAPP mice, doses ≥ 30 mg/kg p.o.; cited from earlier work
CSF Aβ [2] = test system: CSF Aβ; parameters: method as in PMID 22090477; details: dogs, oral dose of 5 mg/kg; cited from earlier work
CSF Aβ [3] = test system: CSF Aβ; parameters: method as in PMID 22090477; details: healthy volunteers, cited from earlier work
[4] = human, in vivo; cited from earlier work
deposited Aβ = test system: deposited Aβ; parameters: method as in PMID 25164658; details: APP London mice, 4 months of dosing, 30 mg/kg; cited from earlier work

CC1(C#Cc2cnc3c(c2)[C@]2(COC(N)=N2)c2cc(-c4cccnc4F)ccc2O3)COC1 [AMG-8718]
toxicity finding in rats ([1]; high doses): retinal toxicity

C[C@@]1(c2cc(-c3cncnc3)c(F)cc2F)CCSC(N)=N1 [LY2811376]
toxicity finding in rats [1]: neuronal lipofuscinosis and degeneration
reduction of brain Aβ (brain Aβ): > 60%
reduction of CSF Aβ (CSF Aβ [2]): approximately 70%
change of CSF Aβ (CSF Aβ [3]; oral dose 30 mg): -20%
change of CSF Aβ (CSF Aβ [3]; oral dose 90 mg): -54%

NC1=N[C@@]2(c3cc(NC(=O)c4ccc(F)cn4)ccc3F)COC[C@H]2CS1 [LY2886721]
liver finding in AD patients [4]: elevation of liver enzymes

C[C@]1(c2cc(NC(=O)c3ccc(C#N)cn3)ccc2F)N=C(N)OCC1(F)F [RO5508887]
reduction of total deposited Aβ40 (deposited Aβ): 28%
reduction of total deposited Aβ42 (deposited Aβ): 45%
